Data published in EP4274570B1, “ACTIVATORS OF THE BMP/SMAD AXIS FOR USE IN TREATING AND/OR PREVENTING MUSCLE ATROPHY” (Università Degli Studi Di Torino, priority 2021, dated 2022).

Tests used:
C2C12 myotubes [1] = assay: Measurement of C2C12 myotube diameters; format: cell-based, murine; conditions: for C26 CM-induced atrophy (myotube diameter): 10% C26 conditioned medium, FK506 1µg/mL or siFKBP12 transfection; for hypertrophy (myotube diameter): BMP6 1ng/mL as positive control
Procedure: When the confluence of 80-90% is reached, they are differentiated into myotubes in DMEM/2% HS medium for 4 days.
For the signaling experiments, two hours prior to treatment, the DMEM differentiation medium without serum was changed, followed by 1h of treatment with FK506 (1 µg/mL) or BMP6 (30ng/mL).
The myotubes were analyzed 48h after transfection to establish the diameters and lysates for RNA extraction.
Photographs of the myotubes were taken using 20X magnification bright field microscopy (Zeiss) and their diameter was measured using FIJI software.

tibialis anterior = conditions: mice treated for 9 days; cited from earlier work
C2C12 myotubes [2] = assay: Protein ubiquitination flow after proteasome inhibition (MG132) in C2C12 myotubes; format: cell-based, murine; conditions: FK506 1µg/mL plus Activin A 1ng/mL, with and without MG132 1µM, 1h
Procedure: (§1) The myotubes were treated with 10% C26 conditioned medium (C26 CM (9)) or Activin A (1ng/mL R&D # 338-AC), FK506 (1µg/mL Cayman Chemical, #10007965), BMP6 (1ng/mL R&D Systems, 6325-BM), cyclosporine A (1µM Tocris Biosciences #1101), DMH1 (5µM CAS No 1206711-16-1) or with DMEM/2%HS (CTR) differentiation medium for 24h to measure their diameter. For the signaling experiments, two hours prior to treatment, the DMEM differentiation medium without serum was changed, followed by 1h of treatment with FK506 (1 µg/mL) or BMP6 (30ng/mL). The protein ubiquitination flow was measured by treating in C2C12 myotubes with FK506 1µg/mL, Activin A 1ng/mL (ACTA), and the combination of the two, with and without MG132 proteasome inhibitor (Senta Cruz Biotechnology, SC-351846), 1µM for 1h.
(§2) C2C12 myotubes were lysed in RIPA lysis buffer (150mM NaCl, 50mM Tris-HCl, 0.5% sodium deoxycholate, 1.0% Triton X-100, 0.1% SDS, and 1mM EDTA) with protease and phosphatase inhibitors (Roche, #0490837001, #11697498001). The protein concentration was determined using the BCA assay (Thermo Fisher Scientific). 15µg of proteins from cell lysates were loaded for performing SDS-PAGE, then transferred onto PVDF membrane for immunoblotting analysis. The primary antibodies used are: SMAD1 (Cell Signaling, #9743), P-SMAD1/5 (Cell Signaling, #13820T), vinculin (Cell Signaling #4650), ubiquitin (Abcam, #7780).

Balb C mice = assay: Hypertrophy experiment in Balb C mice without tumor, oral treatment; format: in vivo
Procedure: (§3) FK506 (Cayman Chemical, #10007965) was dissolved in DMSO (5mg/mL) and then diluted in a 5% glucose and water solution for oral administration in order to reach the final concentration of 0.02mg/kg. All the mice were subjected to one day of treatment, prior to inoculation of colon-26 (C26) adenocarcinoma cells into the right flank of three-month-old Balb C females (Charles River #028) (0.7x10^6 cells/mouse). All the mice were treated daily with FK506 (0.02 mg/Kg) or 5% glucose buffer DMSO vehicle.
(§4) The gastrocnemii, tumors, and subcutaneous and inguinal adipose tissue were isolated, weighed, and normalized for the tibia length of each mouse.
4-month-old Balb C females were treated orally every day for 4 weeks (5 days per week), with 0.02mg/Kg/day FK506 in 5% glucose solution or with vehicle (CTR). The maximum strength was measured weekly with the Grip Strength Test.

[3] = tested on: post-transplant diabetes mellitus rats; conditions: 1 mg/kg/d; cited from earlier work
immune populations = assay: FACS of immune populations in blood, spleens and tumors of C26 mice; format: in vivo; conditions: FK506 0.02 mg/Kg daily oral
Procedure: The blood was extracted and incubated with erythrocyte lysis buffer for 10 minutes at room temperature. After washing with PBS, the cells were collected, incubated with Fc-receptor blocker (anti-CD16/CD32 antibody, BD Bioscience #101302) and stained for 30 minutes at 4°C with the antibodies.
The primary tumors were extracted, crushed, and digested with collagenase IV (1mg/mL) (Sigma Aldrich #C4-28) in RPMI-1640 at 37°C for 1h. After washing the tissues with RPMI-1640/10% FBS, the suspension was passed through a 70-µm pore filter, centrifuged at 1400rpm for 10 minutes and incubated with the erythrocyte lysis buffer (155 mM NH4Cl, 15.8 mM Na2CO3, 1 mM EDTA, pH 7.3) for 10 minutes at room temperature. After washing with RPMI-1640/10% FBS, 1 million cells were resuspended in PBS, treated with Fc-receptor blocker (anti-CD16/CD32 antibody, BD Bioscience #101302) and stained for 30 minutes at 4°C with the antibodies.

[4] = tested on: Colon-26 (C26) murine tumor cachexia model; assay: Colon-26 (C26) tumor cachexia model, oral treatment; format: in vivo; conditions: C26 mice, FK506 0.02 mg/Kg daily oral
Procedure: as §3
Maximum muscle strength was measured on the day of inoculation (day 0) and the day of sacrifice (day 11) using the Grip Strength Test (Bioseb).
as §4
The fresh gastrocnemii were frozen in liquid nitrogen-cooled isopentane and stored at -80°C. 7µm cross-sections were performed using a cryostat. Immunofluorescence was performed by securing the tissues in 4% PFA, blocking with […] in PBS before incubating with the primary antibody for laminin (sc-59854), and with the secondaries (ALEXA488) and DAPI (Abcam 228549). The photographs were taken with a fluorescence microscope to evaluate the cross-sectional area of the fibers.
The total RNA from the frozen tissues was extracted with TRIzol reagent (Invitrogen) following the manufacturer's instructions. 0.5-1µg of total RNA were retrotranscribed using High Capacity cDNA Reverse Transcriptase kit (Applied Biosystems). The cDNA was analyzed with Real Time Quantitative PCR (ABI PRISM 7900HT FAST Real-Time PCR system, Applied Biosystems) using Luna Universal Probe qPCR master mix (Nebb) and Universal Probe Library system (Roche Applied Science). The relative mRNA levels were calculated using the 2-ΔΔCT method and normalizing for the GAPDH levels. The following primers were used: Atrogin1 F: 5'-[…]-3' (SEQ ID No. 1), R: 5' […]-3' (SEQ ID No. 2); Murf1 F: 5'[…]-3' (SEQ ID No. 3), R: 5'-tcgtcttcgtgttccttgc-3' (SEQ ID No. 4); Musa1 F: 5'-gagaagccagggtttgagc-3' (SEQ ID No. 5), R: 5'-[…]-3' (SEQ ID No. 6); Cathepsin L F: 5'-[…]-3' (SEQ ID No. 7), R: 5'-[…]-3' (SEQ ID No. 8); FKBP12 F: 5'-atgggagtgcaggtggag-3' (SEQ ID No. 9), R: 5'-[…]-3' (SEQ ID No. 10). GAPDH F: 5'-[…]-3' (SEQ ID No. 11), R: 5'-[…]-3' (SEQ ID No. 12).

[5] = tested on: BMP-SMAD1/5/8 signaling pathway; conditions: hepatocytes; cited from earlier work
[6] = tested on: pGL3-BMP responsive element (BRE)-Luc; assay: Luciferase assay with pGL3-BMP responsive element (BRE)-Luc reporter in C2C12 myoblasts; format: cell-based, murine; conditions: FK506 1µg/mL, 5h, compared with BMP6 1ng/mL
Procedure: C2C12 myoblasts were transfected with the pGL3-BMP responsive element (BRE)-Luc plasmid (Addgene #45126) to measure the promoter activation by the SMAD1/5/8 proteins. The cells were treated with FK506 (1µg/mL) or BMP6 (1ng/mL) 15h posttransfection. The luminescence was measured using Dual-Luciferase Reporter Assay System (Promega) after 5h of treatment according to the manufacturer's instructions.

SMAD1/5 = assay: Western blot of SMAD1/5 phosphorylation in C2C12 myotubes; format: cell-based, murine; conditions: FK506 1µg/mL
Procedure: as §1, §2

CC(C)Oc1ccc(-c2cnc3c(-c4ccnc5ccccc45)cnn3c2)cc1 [DMH1]
effect of DMH1 on tacrolimus-induced hypertrophy and protection from C26 CM-induced atrophy (myotube diameter) (C2C12 myotubes [1]; DMH1 5µM, FK506 1µg/mL, 10% C26 CM, 24h): nullifies both the hypertrophic effect of tacrolimus and the protection of C26 (C26 CM) tumor medium-induced atrophy

c1ccc2c(-c3cnn4cc(-c5ccc(N6CCNCC6)cc5)cnc34)ccnc2c1 [LDN-193189]
atrophy in the myofibers of the tibialis anterior (tibialis anterior): 21% | baseline phosphorylation levels of Smad1/5/8 (tibialis anterior): reduction in baseline phosphorylation levels of Smad1/5/8

C=CC[C@@H]1/C=C(\C)C[C@H](C)C[C@H](OC)[C@H]2O[C@@](O)(C(=O)C(=O)N3CCCC[C@H]3C(=O)O[C@H](/C(C)=C/[C@@H]3CC[C@@H](O)[C@H](OC)C3)[C@H](C)[C@@H](O)CC1=O)[C@H](C)C[C@@H]2OC [tacrolimus]
ACTA-induced increase in protein ubiquitination (C2C12 myotubes [2]): completely reversed | maximum muscle strength (Grip Strength test) (Balb C mice; 0.02mg/Kg/day oral, 4 weeks, day 29, versus vehicle (CTR)): significantly increases maximum muscle strength | muscle mass (Balb C mice; oral non-immunosuppressive doses, 11 days): capable of increasing the mass of the quadriceps | muscle atrophy at high immunosuppressive doses [3]: induces muscle atrophy | amount and state of activation of the main immune populations (immune populations): has no effect on these parameters | body weight loss ([4]; 11 days): capable of preventing | fat loss (subcutaneous and inguinal adipose tissue) ([4]; 11 days): capable of preventing | weight of the tumor ([4]; at sacrifice): without altering the weight of the tumor | maximum muscle strength (Grip Strength test) ([4]; end of the experiment (day 11)): increased maximum muscle strength | expression of atrogens (Atrogin 1, MuRF-1, Musa1, Cathepsin L mRNA) in the gastrocnemii ([4]; normalized for GAPDH): reduced expression of all the atrogens | muscle atrophy in terms of muscle fiber diameter ([4]; gastrocnemius cross-section): capable of preventing muscle atrophy | muscle atrophy in terms of skeletal muscle weight ([4]; gastrocnemius weight normalized for tibia length): capable of preventing muscle atrophy | phosphorylation of SMAD 1/5/8 proteins [5]: increasing the phosphorylation of SMAD 1/5/8 proteins | transcription of their epcidin target [5]: increasing | BRE-Luc reporter activation [6]: capable of exceeding the BMP6 positive control in reporter activation | C26 CM-induced atrophy (myotube diameter) (C2C12 myotubes [1]; 24h, listed as FK506): capable of preventing C26 CM-induced atrophy | C26 CM-induced atrophy (myotube diameter) (C2C12 myotubes [1]; 24h, listed as Tacrolimus): capable of preventing | hypertrophy (myotube diameter) (C2C12 myotubes [1]; FK506 1µg/mL, 24h, listed as FK506): capable of inducing significant hypertrophy | hypertrophy (myotube diameter) (C2C12 myotubes [1]; FK506 1µg/mL, 24h, listed as Tacrolimus): induces levels of hypertrophy comparable to BMP6 | ACTA-induced atrophy (myotube diameter) (C2C12 myotubes [1]; FK506 1µg/mL, Activin A 1ng/mL, 24h): capable of preventing | effect of tacrolimus on myotube diameter under ALK2 silencing (C2C12 myotubes [1]; siALK2-transfected C2C12 myotubes, FK506 1µg/mL): nullifies the effect of tacrolimus | phosphorylation levels of SMAD1/5 (SMAD1/5; 1h, without stimulation by any extracellular ligand): capable of increasing the phosphorylation levels of SMAD1/5 | effect of tacrolimus on phosphorylation of the Smad1/5/8 proteins under ALK2 silencing (SMAD1/5; siALK2-transfected C2C12 myotubes): nullifies the effect of tacrolimus
